Experiments:
[1] = Multiple dose study (twice daily for ten days): plasma pharmacokinetics of cromolyn and SNAC
Description: Two groups of human males were defined: group 1 consisted of 12 healthy male volunteers, and group 2 had 12 allergic male volunteers. […] The dosing regimen is illustrated in Table 7 below.
Each subject received oral dosing of the study medication twice a day for nine days. On the last day (i.e., day 10), only the morning dose was administered. The capsules were administered with up to 200 mL of water to the subjects in an upright position. The first dose of each day was administered following an overnight fast, and the second dose of each day was administered at least 1 hour before a meal or 4 hours after a meal. No food was allowed for at least 4 hours before the oral dosing.
Pharmacodynamics were measured for Group 1 and 2 by measuring the length and width of the wheal and flare reaction, and permanent records were generated by marking on transparent tapes and/or by photographs. For Group 2 only, pharmacodynamics were also measured by VAS scores and PNIF measurements before and after nasal provocation test.

[2] = Single dose study: safety and tolerability; assay type: in vivo, human; conditions: SNAC administered alone
Description: Cromolyn sodium was orally administered to healthy human subjects in a study designed to evaluate the safety, tolerability, oral absorption and pharmacokinetics data following various doses of cromolyn orally administered in combination with the delivery agent SNAC as capsules. […] This study was a randomized, open label, oral, single escalating dose administration study in healthy, fasted volunteers.
On day one of each study treatment period, medication (capsules) was administered following an 8-hour overnight fast. The capsules were swallowed with up to 120 mL of water to the subjects in an upright position. After each dosing, safety, and pharmacokinetic measures were taken, and cromolyn concentrations were evaluated.

[3] = Administration of cromolyn to rats: serum pharmacokinetics by HPLC; assay type: in vivo, Sprague-Dawley rats
Description: Male Sprague-Dawley rats weighing 225-275 grams were fasted for 24 hours. Rats were anesthized by intra-muscular injection with ketamine and thorazine. Experimental groups were dosed by oral gavage or by intravenous injection. Blood samples were collected serially via the tail artery. Serum obtained from whole blood was acidified and cromolyn extracted with ethyl acetate. The ethyl acetate was added to phosphate buffer or back extraction of cromolyn. Pharmacokinetic parameters were determined from extracted serum by HPLC.

[4] = cited from earlier work
wheal and flare reaction = test: Wheal and flare reaction after intracutaneous injection of codeine/histamine or allergen/histamine; assay type: in vivo, human; conditions: stimulated with codeine
Description: From the literature there are indications that nasal and lung mast cells are more sensitive to cromolyn. […] Healthy subjects received codeine/histamine to induce wheal and flare reaction, and allergic subjects received allergen/histamine to induce wheal and flare reaction.
Wheal and flare reaction was read 15 min. after the injections of codeine/histamine or allergen/histamine, traced by pen onto transparent cellophane and the length and width of the reaction was measured. Wheal and flare reaction was measured for Group 1 (healthy subjects) after intracutaneous injection of codeine/histamine before the morning dose on day 1, at 45 minutes after the morning dose on days 1, 2, 4, 6, 8 and 10, and at 4 and 8 hours after the morning dose on days 2, 4 and 10. Wheal and flare reaction was measured for Group 2 (subjects with allergies) after injection with allergen/histamine before the morning dose on day 1, at 60 minutes after the morning dose on days 4 and 10, and at 8 hours after the morning dose on day 4.

[5] = Single escalating dose study of Cromolyn/SNAC capsules: plasma pharmacokinetics of cromolyn and SNAC; conditions: with SNAC
Description: This study was a randomized, open label, oral, single escalating dose administration study in healthy, fasted volunteers.
The study was carried out in two parts. […] Safety and pharmacokinetic measures were collected and evaluated following each dose.
On day one of each study treatment period, medication (capsules) was administered following an 8-hour overnight fast. The capsules were swallowed with up to 120 mL of water to the subjects in an upright position.
The process could be summarized as follows: First, sieve SNAC powder through a screen, or delump it using a pestle/mortar.

[6] = test system: airway resistance of the sheep after challenge with ascaris; test: Airway resistance after ascaris challenge in sheep given oral cromolyn
Description: A control formulation without cromolyn was also administered to an additional group. The biological effect of the cromolyn was assessed using changes in airway resistance of the sheep after challenge with ascaris.

[7] = cited from earlier work; remark: listed apart in the source
[8] = serum cromolyn, Cromolyn 1.5 mg/kg IV

## O=C([O-])CCCCCCCNC(=O)c1ccccc1O.[Na+] [SNAC, Sodium N-[8-(2-hydroxybenzoyl)amino]caprylate]
[1]; male, human, in vivo
  Tmax: ~30 min
  half-life: ~25 min
[1]; twice daily dosing
  accumulation during multiple dose treatment: no accumulation
[2]
  effect on human subjects: did not display any significant effect

## 5,5′-[(2-hydroxy-1,3-propanediyl)bis-(oxy)]4-oxo-4H-1-benzopyran-2-carboxylic acid [cromolyn]
[1]; after each drug administration
  time within which plasma concentrations declined to negligible levels: ≤ 4 h
[1]; cromolyn administered without SNAC
  oral absorption (plasma concentration): < 2.3 ng/mL
[1]; cromolyn given in combination with 600 mg SNAC
  mean plasma concentrations: up to 65 ng/mL
[1]; cromolyn given orally in combination with SNAC, fasting male volunteers
  time of peak concentrations after drug administration: approximately 20 minutes
[1]; multiple dose study
  plasma half-life: ~45 min
[3]; control group, cromolyn alone
  serum cromolyn concentrations: No detectable
[3]; intravenous cromolyn 1.5 mg/kg
  area under the serum concentration-time curve (AUC): 20.4 µg·min/mL
  peak serum concentration (Cmax): 1.3 µg/mL
  time of peak serum concentration (Tmax): 0 min
[3]; [8]
  Avg. AUC: 20.4 µg·min/mL
  Avg. Cmax: 1.3 µg/mL
  Tmax: 0 min
[4]; in vivo
  dose eliminated unchanged in the feces: Roughly 98%
[4]; inhalation dose of 20 mg
  absolute bioavailability: about 8%
[4]; inhalation
  inhaled dose that reaches the lungs: 5-10%
[4]; oral cromolyn without the delivery agents
  systemic bioavailability: approximately 1%
Wheal and flare reaction
  effects on skin mast cell degranulation (wheal and flare): no significant effects
[5]
  mean elimination half-life: 1 to 2 h
  time of maximum plasma concentrations post-dose: about 20 minutes
[6]; 100 mg/kg cromolyn and 300 mg/kg delivery agent 12 hours prior to challenge
  mean protection vs. the peak control response: 77%
[6]; Drug Trial, Means, 300 mg/kg CR-1 & 100 mg/kg Cromolyn oral 12 hrs. before Ag. challenge
  P-Acaris % (change in airway resistance): approximately 157%
[7]
  solubility in water: freely soluble in water
